One compound from patent publication US10907168B2, “Jasmonic acid pathway activator” (MEDICAGO INC., priority 2015, dated 2021) can be followed below.

In experiment [1] the test system is 33-kDa pathogen-inducible PR-2 protein. As to the kind of experiment: 33-kDa PR-2 protein accumulation, immunodetection and densitometry. The experiment is classed as in vivo, Nicotiana benthamiana. The conditions noted are these: non-infiltrated leaves; sprayed at 0.5 or 1 mM; ANOVA P>0.05. The source says: FIGS. 2a-2c show the effect of MeJA treatment on PR-2 protein accumulation, agrobacteria numbers and transcript numbers of the two A. tumefaciens virulence proteins VirB1 and VirE1 in N. benthamiana leaves. […] Immunoblot signals were quantified using the Phoretix 2-D Expression software v. 2005 (NonLinear USA) after scanning nitrocellulose membranes with a Microtek ScanMaker II digitalizer (Microtek Laboratory). Data are the mean of three leaf replicates±SE. An arbitrary value of 1.0 was assigned to PR-2 level in control healthy leaves. […] Data are expressed as log numbers of colony-forming units (CFU) on agar plates and each point is the mean of five independent (leaf replicate) values±SE. […]
Whole leaf proteins were extracted from three 1-cm^2 leaf discs in 400 μl of ice-cold 50 mM Tris-HCl, pH 7.5, containing 150 mM NaCl, by disrupting the leaf samples with tungsten carbide beads (Qiagen, Mississauga ON, Canada) in a Mini-Beadbeater apparatus (BioSpec, Bartlesville Okla., USA). […] RuBisCO small subunit was detected using polyclonal IgG raised in rabbit against a synthetic small subunit peptide (Agrisera, Vännäs, Sweden) and alkaline phosphatase-conjugated goat anti-rabbit IgG as secondary antibodies (Sigma-Aldrich). […] C5-1 light and heavy chains were detected with alkaline phosphatase-conjugated goat anti-mouse IgG antibodies (Sigma-Aldrich).

The test system of experiment [2] is A. tumefaciens. Nature of the experiment: Bacterial counts (CFU) in agroinfiltrated leaves. The experiment is classed as in vivo, Agrobacterium tumefaciens. To be noted: control and treated leaves; after four or six days post-infiltration. The source says:
Two gene vectors were used for the agroinfiltration assays: an engineered pcambia2300 vector encoding the light and heavy chains of C5-1 fused to an N-terminal signal peptide sequence for cellular secretion (see Goulet et al., 2012 for details on gene construct); and the original (“empty”) pcambia2300 binary vector (CAMBIA, Canberra, Australia) as a control for agroinfection. The two binary vectors were electroporated into A. tumefaciens strain LBA4404 and the cultures were maintained in Luria-Bertani (LB) medium supplemented with 50 μg/ml kanamycin and 50 μg/ml rifampicin. For infiltration, bacteria were grown to stable phase at 28° C. to an OD600 of 1.0 and collected by centrifugation at 2,000 g. The bacterial pellets were resuspended in 10 mM 2-[N-morpholino] ethanesulfonic acid] (MES) buffer, pH 5.8, containing 100 μM acetosyringone and 10 mM MgCl2. Leaf infiltration was performed using a needle-less syringe as described earlier (D'Aoust et al., 2009), after mixing the C5-1 antibody (or empty vector) agrobacterial suspension with an equal volume of bacterial suspension carrying a binary vector for the protein silencing suppressor p19 (Voinnet et al., 2003). […] Bacterial loads in leaves were determined by the counting of CFU on LB agar plates coated with bacteria recovered at different moments from the third main stem leaf. […]

For experiment [3], the system named is N. benthamiana leaves. As to the kind of experiment: Leaf protein profile, Coomassie blue-stained SDS-PAGE and MS/MS identification. In kind it is in vivo, Nicotiana benthamiana. The conditions noted are these: uninfiltrated leaves; ~30-kDa, ~25-kDa and ~6-kDa mass ranges; seven days post-treatment. Here is the method:
Forty-two day-old N. benthamiana plants grown in greenhouse were used for the experiments. Each plant was sprayed evenly with 50 ml of 0.5 mM, 1 mM or 2 mM MeJA in water containing 0.1% (v/v) Triton X-100 (Sigma-Aldrich, Mississauga ON, Canada), or with 50 ml of 1 mM arachidonic acid (Girard et al., 2007) in the same solvent, and transferred for seven days in a Conviron growth chamber (Conviron, Winnipeg MB, Canada). Plants sprayed with 50 ml of 0.1% (v/v) Triton X-100 in water were used in parallel as negative controls to avoid confounding effects due to experimental conditions. […]
Whole leaf proteins were extracted from three 1-cm^2 leaf discs in 400 μl of ice-cold 50 mM Tris-HCl, pH 7.5, containing 150 mM NaCl, by disrupting the leaf samples with tungsten carbide beads (Qiagen, Mississauga ON, Canada) in a Mini-Beadbeater apparatus (BioSpec, Bartlesville Okla., USA). […] RuBisCO small subunit was detected using polyclonal IgG raised in rabbit against a synthetic small subunit peptide (Agrisera, Vännäs, Sweden) and alkaline phosphatase-conjugated goat anti-rabbit IgG as secondary antibodies (Sigma-Aldrich). RuBisCO large subunit was detected using polyclonal IgG raised in hen against a synthetic large subunit peptide (Agrisera) and alkaline phosphatase-conjugated goat anti-chicken IgG as secondary antibodies (Sigma-Aldrich). […]

Experiment [4] relates to C5-1 antibody. Nature of the experiment: C5-1 antibody immunodetection after non-reducing SDS-PAGE. The experiment is classed as in vivo, Nicotiana benthamiana. The conditions noted are these: agroinfiltrated leaves; treated 24 h before infiltration; 35S-type C5-1 vector.

Consider `CC/C=C\C[C@H]1C(=O)CC[C@@H]1CC(=O)OC` [MeJA, methyl jasmonate], for which the “expression of 33-kDa PR-2 protein” value in experiment [1] was “no significant effect”. In addition, the bacterial counts entry in experiment [2] is listed as “less than a million”. Further, in experiment [3], the “up-regulation of proteins on Coomassie blue-stained gels” value was “up-regulation of several proteins”. Also, the “C5-1 protein band patterns on immunoblot compared to control plants” value in experiment [4] was “increased intensity”.
